Patent US20240277860A1, “CAMPTOTHECIN PEPTIDE CONJUGATES” (priority 2019, published 2024)
Read-outs that look alike come from different tables or passages of the source.

What was measured:
Format in all cases: cell-based
[1] = test system: melanoma cells (SK-MEL-5); experiment: In vitro potency, CellTiter-Glo growth inhibition, SK-MEL-5; conditions: Homo sapiens, read-out: IC50 SK-MEL-5
Description: (§1) In vitro potency was assessed on multiple cancer cell lines. All cell lines were authenticated by STR profiling at IDEXX Bioresearch and cultured for no more than 2 months after resuscitation. Cells cultured in log-phase growth were seeded for 24 hours in 96-well plates containing 150 μl RPMI 1640 supplemented with 20% FBS. Serial dilutions of antibody-drug conjugates in cell culture media were prepared at 4× working concentrations, and 50 μl of each dilution was added to the 96-well plates. Following addition of test articles, cells were incubated with test articles for 4 days at 37° C. After 96 hours, growth inhibition was assessed by CellTiter-Glo® (Promega, Madison, WI) and luminescence was measured on a plate reader. The IC50 value, determined in triplicate, is defined here as the concentration that results in 50% reduction in cell growth relative to untreated controls.
(§2) In the following Tables IC50 values for ADCs and campthothecin free drugs are given in ng/mL and […] concentrations, respectively. Cell viability was determined by CellTiter-Glo staining after 96 h exposure to ADC. ND=Not Determined. Ag1 is an antibody targeting a ubiquitous and readily internalizable antigen on cancer cells.

[2] = test system: B-lymphocyte cancer cells (U266); experiment: In vitro potency, CellTiter-Glo growth inhibition, U-266; conditions: Homo sapiens, read-out: IC50 U-266
Description: as §1, §2

[3] = test system: acute myeloid leukemia cells (MOLM13); experiment: In vitro potency, CellTiter-Glo growth inhibition, MOLM-13; conditions: Homo sapiens, read-out: IC50 MOLM-13
Description: as §1, §2

[4] = test system: renal carcinoma cells (786-O); experiment: In vitro potency, CellTiter-Glo growth inhibition, 786-O; conditions: Homo sapiens, read-out: IC50 786-O
Description: as §1, §2

[5] = test system: B-lymphocyte cancer cells (SU-DHL-4); experiment: In vitro potency, CellTiter-Glo growth inhibition, SU-DHL-4; conditions: Homo sapiens, read-out: IC50 SU-DHL-4
Description: as §1, §2

[6] = test system: MDR(+) acute promyelocytic leukemia cells (HL60/RV); experiment: In vitro potency, CellTiter-Glo growth inhibition, HL60/RV; conditions: Homo sapiens, read-out: IC50 HL60/RV
Description: as §1, §2

[7] = test system: Burkitt's lymphoma cells (Ramos); experiment: In vitro potency, CellTiter-Glo growth inhibition, Ramos; conditions: Homo sapiens, 96 h, read-out: IC50 Ramos
Description: as §1, §2

[8] = test system: Hodgkin's lymphoma cells (L540cy); experiment: In vitro potency, CellTiter-Glo growth inhibition, L540cy; conditions: 96 h, read-out: IC50 L540cy
Description: as §1, §2

[9] = test system: multiple myeloma cells (MM.1R); experiment: In vitro potency, CellTiter-Glo growth inhibition, MM.1R; conditions: 96 h, read-out: IC50 MM.1R
Description: as §1, §2

[10] = test system: pancreatic cancer cells (BxPC3); experiment: In vitro potency, CellTiter-Glo growth inhibition, BxPC3; conditions: Homo sapiens, read-out: IC50 BxPC3
Description: as §1, §2

[11] = test system: MDR(−) acute promyelocytic leukemia cells (HL-60); experiment: In vitro potency, CellTiter-Glo growth inhibition, HL-60; conditions: Homo sapiens, read-out: IC50 HL-60
Description: as §1, §2

[12] = SK-MEL-5, camptothecin free drugs, 96 h, CellTiter-Glo
[13] = U-266, camptothecin free drugs, 96 h, CellTiter-Glo
[14] = MOLM-13, camptothecin free drugs, 96 h, CellTiter-Glo
[15] = 786-0, camptothecin free drugs, 96 h, CellTiter-Glo
[16] = SU-DHL-4, camptothecin free drugs, 96 h, CellTiter-Glo
[17] = HL-60, camptothecin free drugs, 96 h, CellTiter-Glo
[18] = camptothecin free drugs, CellTiter-Glo
[19] = BXPC-3, camptothecin free drugs, 96 h, CellTiter-Glo

| Structure (SMILES) | IC50 ([1]; SK-MEL-5, 96 h) [µM] | IC50 ([2]; U-266, 96 h) [µM] | IC50 ([3]; MOLM-13, 96 h) [µM] | IC50 ([4]; 786-0, 96 h) [µM] | IC50 ([5]; SU-DHL-4, 96 h) [µM] | IC50 ([6]; HL-60, 96 h) [µM] | IC50 [7] [µM] | IC50 [8] [µM] | IC50 [9] [µM] | IC50 ([10]; BXPC-3, 96 h) [µM] | IC50 ([11]; HL-60, 96 h) [µM] | IC50 [1, 12] [µM] | IC50 [2, 13] [µM] | IC50 [3, 14] [µM] | IC50 [4, 15] [µM] | IC50 [5, 16] [µM] | IC50 [6, 17] [µM] | IC50 [7, 18] [µM] | IC50 [8, 18] [µM] | IC50 [9, 18] [µM] | other results |
| --- | --- | --- | --- | --- | --- | --- | --- | --- | --- | --- | --- | --- | --- | --- | --- | --- | --- | --- | --- | --- | --- |
| CC[C@@]1(O)C(=O)OCc2c1cc1n(c2=O)Cc2c-1nc1cc3c(cc1c2CNC(=O)[C@@H](N)CC(=O)O)OCO3 [Compound 3j] | 0.91 | 0.436 | 0.588 | 0.026 | 0.145 | > 1 | 0.099 | 0.687 | 0.318 | 0.648 | > 1 | – | – | – | – | – | – | – | – | – | – |
| CC[C@@]1(O)C(=O)OCc2c1cc1n(c2=O)Cc2c-1nc1cc3c(cc1c2CNC(=O)[C@@H](N)CC(C)C)OCO3 [Compound 3] | 0.015 | 0.006 | 0.008 | > 1 | 0.003 | 0.194 | 0.002 | 0.005 | 0.004 | 0.009 | 0.03 | – | – | – | – | – | – | – | – | – | – |
| CC[C@@]1(O)C(=O)OCc2c1cc1n(c2=O)Cc2c-1nc1cc3c(cc1c2CNC(=O)[C@@H](N)CCCCN)OCO3 [Compound 3h] | 0.06 | 0.036 | 0.097 | > 1 | 0.014 | 0.128 | 0.012 | 0.007 | 0.013 | 0.042 | 0.552 | – | – | – | – | – | – | – | – | – | – |
| CC[C@@]1(O)C(=O)OCc2c1cc1n(c2=O)Cc2c-1nc1cc3c(cc1c2CNC(=O)[C@@H](N)C(C)C)OCO3 [Compound 3b] | 0.014 | 0.008 | 0.005 | > 1 | 0.002 | 0.857 | 0.001 | 0.006 | 0.004 | 0.012 | 0.023 | – | – | – | – | – | – | – | – | – | – |
| CC[C@@]1(O)C(=O)OCc2c1cc1n(c2=O)Cc2c-1nc1cc3c(cc1c2CNC(=O)[C@@H](N)Cc1c[nH]cn1)OCO3 [Compound 3i] | – | – | – | – | – | – | – | – | – | – | – | 0.414 | 0.452 | 0.996 | 0.022 | 0.255 | > 1 | 0.197 | 0.321 | 0.147 | IC50 [10, 19]: 0.331 µM; IC50 [11, 17]: > 1 µM |
| CC[C@@]1(O)C(=O)OCc2c1cc1n(c2=O)Cc2c-1nc1cc3c(cc1c2CNC(=O)[C@@H](N)CCC(N)=O)OCO3 [Compound 3m] | 0.208 | 0.086 | 0.125 | 0.051 | 0.071 | > 1 | 0.034 | 0.076 | 0.03 | 0.16 | 0.823 | – | – | – | – | – | – | – | – | – | – |
| CC[C@@]1(O)C(=O)OCc2c1cc1n(c2=O)Cc2c-1nc1cc3c(cc1c2CNC(=O)[C@@H](N)CCSC)OCO3 [Compound 3e] | 0.027 | 0.012 | 0.016 | > 1 | 0.005 | 0.37 | 0.004 | 0.013 | 0.006 | 0.019 | 0.092 | – | – | – | – | – | – | – | – | – | – |
| CC[C@@]1(O)C(=O)OCc2c1cc1n(c2=O)Cc2c-1nc1cc3c(cc1c2CNC(=O)[C@H](C)N)OCO3 [Compound 3a] | 0.049 | 0.02 | 0.023 | 0.381 | 0.008 | 0.416 | 0.006 | 0.012 | 0.008 | 0.042 | 0.106 | – | – | – | – | – | – | – | – | – | – |
| CC[C@@]1(O)C(=O)OCc2c1cc1n(c2=O)Cc2c-1nc1cc3c(cc1c2CNC(=O)[C@@H](N)Cc1ccccc1)OCO3 [Compound 3f] | – | – | – | – | – | – | – | – | – | – | – | 0.045 | 0.017 | 0.014 | > 1 | 0.005 | > 1 | 0.004 | 0.034 | 0.009 | IC50 [10, 19]: 0.039 µM; IC50 [11, 17]: 0.088 µM |
| CC[C@@]1(O)C(=O)OCc2c1cc1n(c2=O)Cc2c-1nc1cc3c(cc1c2CNC(=O)C(C)(C)N)OCO3 [Compound 3d] | 0.014 | 0.004 | 0.005 | > 1 | 0.003 | 0.84 | 0.001 | 0.004 | 0.003 | 0.01 | 0.025 | – | – | – | – | – | – | – | – | – | – |
| CC[C@@]1(O)C(=O)OCc2c1cc1n(c2=O)Cc2c-1nc1cc3c(cc1c2CNC(=O)[C@@H](N)CCCNC(=N)N)OCO3 [Compound 3g] | – | – | – | – | – | – | – | – | – | – | – | 0.034 | 0.015 | 0.057 | > 1 | 0.006 | 0.051 | 0.006 | 0.004 | 0.006 | IC50 [10, 19]: 0.018 µM; IC50 [11, 17]: 0.191 µM |
| CC[C@@]1(O)C(=O)OCc2c1cc1n(c2=O)Cc2c-1nc1cc3c(cc1c2CNC(=O)[C@@H](N)Cc1c[nH]c2ccccc12)OCO3 [Compound 3n] | – | – | – | – | – | – | – | – | – | – | – | 0.33 | 0.062 | 0.08 | 0.083 | 0.027 | > 1 | 0.018 | 0.185 | 0.074 | IC50 [10, 19]: 0.143 µM; IC50 [11, 17]: 0.526 µM |
| CC[C@@]1(O)C(=O)OCc2c1cc1n(c2=O)Cc2c-1nc1cc3c(cc1c2CNC(=O)[C@@H](N)[C@@H](C)O)OCO3 [Compound 3l] | 0.109 | 0.057 | 0.045 | > 1 | 0.016 | > 1 | 0.008 | 0.027 | 0.022 | 0.064 | 0.298 | – | – | – | – | – | – | – | – | – | – |
